Legend:
Type in all cases: biochemical
FXIIa = target: T1, FXIIa (Homo sapiens, UniProt P00748); assay: Determination of Factor XIIa inhibition, chromogenic substrate S-2302 assay; conditions: human FXIIa alpha
T1 sequence (P00748 373-615 limits assumed): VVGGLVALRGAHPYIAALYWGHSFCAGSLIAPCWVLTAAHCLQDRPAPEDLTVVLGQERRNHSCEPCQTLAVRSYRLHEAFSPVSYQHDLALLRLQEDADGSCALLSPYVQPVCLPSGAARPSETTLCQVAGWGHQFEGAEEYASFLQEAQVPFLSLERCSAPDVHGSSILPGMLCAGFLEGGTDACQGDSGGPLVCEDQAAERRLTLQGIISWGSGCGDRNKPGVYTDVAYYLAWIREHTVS
T1 sequence (P00748 20-372 partner limits assumed): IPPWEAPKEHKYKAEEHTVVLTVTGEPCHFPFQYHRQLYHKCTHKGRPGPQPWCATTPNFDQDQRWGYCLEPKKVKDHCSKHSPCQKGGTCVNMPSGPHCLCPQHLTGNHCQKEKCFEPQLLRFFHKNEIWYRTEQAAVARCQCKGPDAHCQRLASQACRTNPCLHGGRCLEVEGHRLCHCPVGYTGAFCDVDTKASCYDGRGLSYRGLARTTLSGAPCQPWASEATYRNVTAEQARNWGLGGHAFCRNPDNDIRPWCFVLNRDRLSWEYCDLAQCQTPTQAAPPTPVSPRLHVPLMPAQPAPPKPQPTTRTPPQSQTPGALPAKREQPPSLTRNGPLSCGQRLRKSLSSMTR
Protocol: (§1) The activities of the compounds of the invention have been determined in vitro using the following assays protocols for the screening of activity of FXIIa and other proteases. Each of these assays were performed in a purified system employing the use of chromogenic assays in microplate plate wells. Chromogenic peptide substrates mimicking natural protein substrates are attached via an amide bond to a chromogenic group. Paranitroaniline (pNA) is released from the peptide following catalyses by the proteolytic enzyme; the absorbance increases and can be monitored at 405 nm.
(§2) All compounds were dissolved in 100% (v/v) DMSO to a stock concentration of 10 mM, the highest concentration of compound used in each assay is 500 μM. The final concentrations of DMSO were 5% (v/v) in 50 mM Tris 137 mM NaC pH 7.4. Where no test compound was added a final concentration of 5% DMSO was employed.
Determination of Factor XIa Inhibition
Factor XIa activity was measured using a chromogenic substrate S-2302 (Chromogenix). Various concentrations of compound were incubated with 10 nM of FXIIa and incubated at 37° C. for 10 minutes in 50 mM Tris, 137 mM NaCl, pH 7.4, prior to the addition of a final concentration of 450 µM S-2302 chromogenic substrate. Kinetic readings at 405 nm were monitored every 12 secs for a total duration of 3 hours at 37° C. Gradients of initial rates were determined and employed to calculate IC50 values. Values of IC50 were converted to Ki values based on the formula: Ki=IC50/(1+[Substrate]/Km).
The activity of the compounds of the invention has been categorised based on the Ki values, the categories being “*”, “**” and “***”. […] The category “**” refers to compounds with a Ki value of 0.2 μM to 2 μM.

thrombin = target: T2, thrombin (Homo sapiens, UniProt P00734); assay: Determination of selectivity: thrombin inhibition, chromogenic substrate GPR assay; conditions: fold selectivity for FXIIa over thrombin
T2 construct: FXa (5 nM) and thrombin (5 nM)
Protocol: as §1, §2
(§3) Determination of Selectivity
(§4) To determine selectivity of test compounds, these test compounds were assayed for inhibitory activity against other serine proteases including FXa and thrombin. Essentially compounds at increasing concentrations were incubated with each enzyme: FXa (5 nM) and thrombin (5 nM), for 10 mins at 37° C. followed the appropriate chromogenic substrate, S2765 ([…]), and GPR ([…]) respectively in 50 mM Tris, 137 mM NaCl, pH 7.4. Chromogenic substrates S2765 was from Chromogenix, and GPR from Bachem. Kinetic readings at 405 nm were monitored every 12 secs for a total duration of 3 hours at 37° C. Gradients of initial rates were determined and employed to calculate IC50 values. Values of IC50 were converted to Ki values based on the formula: Ki=IC50/(1+[Substrate]/Km)
(§5) Where [Substrate] denotes the concentration of substrate used in the assay and Km is the determined value of each enzyme with its own substrate.
(§6) The fold selectivity for FXIIa over thrombin for the compounds of the invention has been categorised based on the fold selectivity values, the categories being “+”, “++” and “+++”. The category “+” refers to fold selectivity values less than 10. The category “++” refers to a fold selectivity value of 10 to 100. The category “+++” refers to fold selectivity values greater than 100.

FXa = FXa (Homo sapiens, UniProt P00742); assay: Determination of selectivity: FXa inhibition, chromogenic substrate S2765 assay; conditions: fold selectivity for FXIIa over FXa
Protocol: as §1, §2, §3, §4, §5, §6
The fold selectivity for FXIIa over FXa for the compounds of the invention has been categorised based on the fold selectivity values, the categories being “o”, “oo” and “ooo”. The category “o” refers to fold selectivity values less than 10. The category “oo” refers to a fold selectivity value of 10 to 100. The category “ooo” refers to fold selectivity values greater than 100.

Sequence of FXa (P00742 235-488 limits assumed): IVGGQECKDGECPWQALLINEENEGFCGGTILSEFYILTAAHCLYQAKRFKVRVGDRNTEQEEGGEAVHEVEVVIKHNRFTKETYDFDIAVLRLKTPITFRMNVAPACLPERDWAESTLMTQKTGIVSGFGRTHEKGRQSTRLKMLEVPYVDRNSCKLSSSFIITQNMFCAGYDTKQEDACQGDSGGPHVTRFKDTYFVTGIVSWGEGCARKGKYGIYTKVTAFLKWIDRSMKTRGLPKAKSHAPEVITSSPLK
Sequence of FXa (P00742 41-179 partner limits assumed): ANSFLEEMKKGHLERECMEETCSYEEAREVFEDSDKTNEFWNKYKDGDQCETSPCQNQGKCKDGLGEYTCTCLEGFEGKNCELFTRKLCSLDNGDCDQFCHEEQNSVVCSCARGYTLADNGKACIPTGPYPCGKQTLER

Row | Compound | Ki (FXIIa) | Thrombin (human)/FXIIa alpha (human) (thrombin) | FXa (human)/FXIIa alpha (human) (FXa)
1 | COc1ccc(C[C@@H]2C[C@@H](C(=O)NCc3cc4cnccc4[nH]3)N(C(=O)C3NCCc4cc(OC)ccc43)C2)cc1 (single isomer, unassigned) [Example M00961] | < 200 nM | +++ (fold selectivity values greater than 100) | ∘∘∘
2 | COc1ccc(C[C@@H]2C[C@@H](C(=O)NCc3cc4cnccc4[nH]3)N(C(=O)C3NCCc4cc(OC)ccc43)C2)cc1 (single isomer, unassigned) [Example M00963] | < 200 nM | +++ (fold selectivity values greater than 100) | ∘∘∘
3 | NCc1ccc(CNC(=O)[C@@H]2C[C@H](O)CN2C(=O)[C@H](N)CCc2ccccc2)cc1 [Example M00626] | > 2000 nM | ++ (fold selectivity value of 10 to 100) | ∘∘
4 | Cc1ccccc1CC[C@@H](N)C(=O)N1CCC[C@H]1C(=O)NCc1ccc(CN)cc1 [Example M00760] | > 2000 nM | + (fold selectivity values less than 10) | ∘∘
5 | Cc1cccc(CC[C@@H](N)C(=O)N2CCC[C@H]2C(=O)NCc2ccc(CN)cc2)c1 [Example M00762] | > 2000 nM | + (fold selectivity values less than 10) | ∘∘
6 | Cc1ccc(CC[C@@H](N)C(=O)N2CCC[C@H]2C(=O)NCc2ccc(CN)cc2)cc1 [Example M00787] | > 2000 nM | + (fold selectivity values less than 10) | ∘∘
7 | NCc1ccc(CNC(=O)[C@@H]2CCCN2C(=O)[C@H](N)CCN2CCCCC2)cc1 [Example M00801] | > 2000 nM | ++ (fold selectivity value of 10 to 100) | ∘∘
8 | NCc1ccc(CNC(=O)C2CCCN2C(=O)[C@H](N)CCc2cccc(CO)c2)cc1 (stereo partly drawn) [Example M00805] | > 2000 nM | + (fold selectivity values less than 10) | ∘∘
9 | NCc1ccc(CNC(=O)[C@@H]2CCCN2C(=O)[C@H](N)CCc2cccnc2)cc1 [Example M00808] | > 2000 nM | + (fold selectivity values less than 10) | ∘∘
10 | NCc1ccc(CNC(=O)[C@@H]2CCCN2C(=O)[C@H](N)CCC(=O)N2CC=CC2)cc1 [Example M00922] | > 2000 nM | + (fold selectivity values less than 10) | ∘∘
11 | NCc1ccc(CNC(=O)[C@@H]2CCCN2C(=O)[C@H](N)CCC(=O)N2CCC3CC32)cc1 (stereo partly drawn) [Example M00929] | > 2000 nM | + (fold selectivity values less than 10) | ∘∘
12 | Cn1nnc2cc(CNC(=O)[C@@H]3C[C@@H](Oc4ccccc4)CN3C(=O)[C@H](N)CCc3ccccc3)ccc21 [Example M00948] | > 2000 nM |  | 
13 | COc1ccc(C[C@@H]2C[C@@H](C(=O)NCc3ccc4c(c3)nnn4C)N(C(=O)[C@H](N)CCc3ccc(F)cc3)C2)cc1 [Example M00949] | 200 to 2000 nM | +++ (fold selectivity values greater than 100) | ∘∘
14 | COc1ccc(C[C@@H]2C[C@@H](C(=O)NCc3cc4ccncc4[nH]3)N(C(=O)[C@H](N)CCC(=O)N3CCCC3)C2)cc1 [Example M00952] | < 200 nM | +++ (fold selectivity values greater than 100) | ∘∘∘
15 | COc1ccc(C[C@@H]2C[C@@H](C(=O)NCc3cc4ccncc4[nH]3)N(C(=O)[C@H]3C[C@@H](c4ccccc4)CN3)C2)cc1 [Example M00953] | < 200 nM | ++ (fold selectivity value of 10 to 100) | ∘∘∘
16 | COc1ccc(C[C@@H]2C[C@@H](C(=O)NCc3cc4ccncc4[nH]3)N(C(=O)[C@H](N)CCc3ccccc3)C2)cc1 [Example M00954] | < 200 nM | + (fold selectivity values less than 10) | ∘∘∘
17 | COc1ccc(C[C@@H]2C[C@@H](C(=O)NCc3ccc4c(c3)nnn4C)N(C(=O)[C@H]3C[C@@H](N4CCCCC4)CN3)C2)cc1 [Example M00955] | 200 to 2000 nM | +++ (fold selectivity values greater than 100) | ∘∘∘
18 | COc1ccc(C[C@@H]2C[C@@H](C(=O)NCc3cc4cnccc4[nH]3)N(C(=O)[C@H](N)CCC(=O)N3CCCC3)C2)cc1 [Example M00957] | < 200 nM | +++ (fold selectivity values greater than 100) | ∘∘∘
19 | COc1ccc(C[C@@H]2C[C@@H](C(=O)NCc3ccc4c(c3)nnn4C)N(C(=O)[C@H]3C[C@@H](n4ccccc4=O)CN3)C2)cc1 [Example M00958] | 200 to 2000 nM | +++ (fold selectivity values greater than 100) | ∘∘∘
20 | COc1ccc(C[C@@H]2C[C@@H](C(=O)NCc3cc4cnccc4[nH]3)N(C(=O)[C@H]3C[C@@H](c4cnn(C)c4)CN3)C2)cc1 [Example M00959] | < 200 nM | +++ (fold selectivity values greater than 100) | ∘∘∘
21 | COc1ccc(C[C@@H]2C[C@@H](C(=O)NCc3cc4cnccc4[nH]3)N(C(=O)[C@H]3C[C@@H](N4CCCCC4)CN3)C2)cc1 [Example M00964] | < 200 nM | +++ (fold selectivity values greater than 100) | ∘∘∘
22 | CC(=O)N[C@H]1C[C@@H](C(=O)NCc2ccc3c(c2)nnn3C)N(C(=O)[C@H](N)CCc2ccccc2)C1 [Example M05144, (2S,4S)-4-Acetylamino-1-((R)-2-amino-4-phenyl-butyryl)-pyrrolidine-2-carboxylic acid (1-methyl-1H-benzotriazol-5-ylmethyl)-amide] | > 2000 nM |  | 
23 | COc1ccc(C[C@@H]2C[C@@H](C(=O)NCc3ccc4c(c3)nnn4C)N(C(=O)[C@H]3CC(c4cnccc4C(F)(F)F)CN3)C2)cc1 (stereo partly drawn) [Example M05398] | > 2000 nM |  | 
24 | COc1ccc(C[C@@H]2C[C@@H](C(=O)NCc3ccc4c(c3)nnn4C)N(C(=O)[C@H]3CC(c4cnccc4C)CN3)C2)cc1 (stereo partly drawn) [Example M05408] | > 2000 nM |  | 
25 | COc1ccc(C[C@@H]2C[C@@H](C(=O)NCc3ccc4c(c3)nnn4C)N(C(=O)C(N)CC(C)(C)c3ccccc3)C2)cc1 (stereo partly drawn) [Example M05415] | > 2000 nM |  | 
26 | COc1ccc(C[C@@H]2C[C@@H](C(=O)NCc3ccc4c(c3)nnn4C)N(C(=O)C(N)CC(C)(C)c3ccccc3)C2)cc1 (stereo partly drawn) [Example M05416] | > 2000 nM |  | 

From patent US12336991B2, “Factor XIIA inhibitors” (UNIVERSITY OF LEEDS, priority 2018, dated 2025)
